The record followed here is patent US8648083B2, “Method of treating diabetic hyperlipidemia or hyperlipidemia with carbamoyloxy arylalkanoyl arylpiperazine compounds” (SK Biopharmaceuticals Co., Ltd., priority 2010, dated 2014).

Counter-ions that a name gives are not always drawn.

In assay [1] the target is T1, rabbit reticulocyte cells-induced 15-lipoxygenase (Oryctolagus cuniculus, UniProt P12530).
T1 construct: rabbit reticulocyte cells-induced 15-lipoxygenase as a test group; from tissue; host or cells: rabbit reticulocytes
T1 sequence (P12530 1-663): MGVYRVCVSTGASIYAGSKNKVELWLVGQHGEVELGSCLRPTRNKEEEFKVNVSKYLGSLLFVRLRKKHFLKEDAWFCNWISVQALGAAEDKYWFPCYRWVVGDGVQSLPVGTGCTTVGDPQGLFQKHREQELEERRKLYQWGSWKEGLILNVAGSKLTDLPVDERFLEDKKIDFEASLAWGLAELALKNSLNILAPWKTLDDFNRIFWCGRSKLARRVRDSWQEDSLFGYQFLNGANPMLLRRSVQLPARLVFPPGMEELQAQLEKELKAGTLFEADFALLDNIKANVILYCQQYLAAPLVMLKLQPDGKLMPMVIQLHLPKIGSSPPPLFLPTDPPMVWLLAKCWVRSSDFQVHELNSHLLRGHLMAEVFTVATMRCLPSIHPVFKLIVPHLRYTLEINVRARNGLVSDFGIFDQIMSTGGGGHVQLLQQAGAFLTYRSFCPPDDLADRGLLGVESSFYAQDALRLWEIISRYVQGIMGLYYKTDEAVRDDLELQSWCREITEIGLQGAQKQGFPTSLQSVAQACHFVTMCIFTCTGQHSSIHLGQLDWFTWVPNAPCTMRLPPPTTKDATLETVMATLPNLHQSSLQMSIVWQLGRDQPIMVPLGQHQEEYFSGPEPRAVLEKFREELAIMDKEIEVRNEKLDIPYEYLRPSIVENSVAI
Briefly: In-vitro test on inhibitory effect on 15-lipoxygenase (13-HPODE formation, absorbance 660 nm). The settings on record: compound 10 uM; 260 μM linolenic acid; 4° C.; PBS pH 7.4; read-out: 15-lipoxygenase Inhibitory level at 10 uM (%). The class given is biochemical. The method, then: (§1) 12-lipoxygenase reacts with arachidonate as a substrate to produce 12-hydroxyeicosatetrenoate (12-HETE) as a product. Accordingly, 12-lipoxygenase activity is evaluated by measuring an amount of generated 12-HETE by spectrometry. Also, 15-lipoxygenase reacts with a linolenic acid as a substrate to produce 13-hydroperoxy-9,11-octadecadienoic acid (13-HPODE) as a product. Accordingly, 15-lipoxygenase activity is evaluated by measuring an amount of generated 13-HPODE by spectrometry.
15-lipoxygenase activity was measured when a concentration of each of the compounds was 10 μM. Each sample was pretreated by using a buffer solution buffer solution (phosphate buffered saline buffer, pH 7.4) at a temperature of 4° C. for 15 minutes, and then 260 μM linolenic acid (a concentration thereof was controlled to be 260 μM during reaction) was added and reacted at a temperature of 4° C. for 10 minutes, and an amount of 13-HPODE as a generated product was measured by absorbance at a wavelength of 660 nm.

Assay [2] concerns the target T2, human platelet-induced 12-lipoxygenase (Homo sapiens, UniProt P18054).
T2 construct: human platelet-induced 12-lipoxygenase as a negative control; from tissue; host or cells: human platelets
T2 sequence (P18054 1-663): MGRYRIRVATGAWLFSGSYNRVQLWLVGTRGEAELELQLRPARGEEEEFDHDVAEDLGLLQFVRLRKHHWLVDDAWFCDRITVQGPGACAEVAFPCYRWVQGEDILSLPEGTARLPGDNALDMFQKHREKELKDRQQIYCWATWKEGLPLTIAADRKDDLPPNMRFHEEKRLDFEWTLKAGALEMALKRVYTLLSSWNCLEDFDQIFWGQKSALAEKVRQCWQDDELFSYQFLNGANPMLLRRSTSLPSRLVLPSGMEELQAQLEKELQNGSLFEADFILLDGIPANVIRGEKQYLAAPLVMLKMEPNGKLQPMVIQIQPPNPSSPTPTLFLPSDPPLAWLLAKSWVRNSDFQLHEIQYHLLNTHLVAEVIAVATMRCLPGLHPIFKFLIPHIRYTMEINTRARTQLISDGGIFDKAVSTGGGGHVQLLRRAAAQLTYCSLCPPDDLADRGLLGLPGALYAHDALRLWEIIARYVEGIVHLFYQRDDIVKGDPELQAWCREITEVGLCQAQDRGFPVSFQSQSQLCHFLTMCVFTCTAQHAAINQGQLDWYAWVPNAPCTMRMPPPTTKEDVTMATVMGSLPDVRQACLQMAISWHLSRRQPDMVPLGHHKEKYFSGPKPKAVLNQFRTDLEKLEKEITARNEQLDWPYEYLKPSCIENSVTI
Nature of the assay: In-vitro test on inhibitory effect on 12-lipoxygenase (12-HETE formation, absorbance 570 nm). The class given is biochemical. The note with it: compound 10 uM; 30 μM arachidonate; 25° C.; Tris-HCl pH 7.4; read-out: 12-lipoxygenase Inhibitory level at 10 uM (%). The method, then: as §1
12-lipoxygenase activity was measured when a concentration of each of the compounds was 10 μM. Each sample was pretreated by using a buffer solution (50 mM Tris-HCl, 0.1% Triton X-100, pH 7.4) at a temperature of 25° C. for 15 minutes and then, 30 μM arachidonate (a concentration thereof was controlled to be 30 μM during reaction) was added thereto and reacted at a temperature of 25° C. for 15 minutes, and an amount of 12-HETE as a generated product was measured by absorbance at a wavelength of 570 nm.

Assay [3] deals with Sprague-Dawley rats having diabetes induced by streptozotocin. Briefly: Pharmaceutical effect test on diabetic hyperlipidemia in diabetes animal model (streptozotocin). It is filed as in vivo, rat. The note with it: 200 mg/kg orally once a day for four weeks. The method, then: Sprague-Dawley rats (n=21, 4 weeks, male) were used as lab models (Central Lab. Animal Inc.). Rats (n=14) having diabetes induced by intraperitoneal administration of 50 mg/kg of streptozotocin were used as a test group, and rats (n=7) intraperitoneally administered with only a solvent (100 mM citric acid buffer solution, pH 4.5) were used as a control. Typically, streptozotocin destroys beta cells of the pancreas to induce diabetes, and thus, blood sugar is increased and amounts of cholesterol and triglycerides in serum are increased. 2 days after the administration of streptozotocin, diabetes was induced in the test group. The test group was divided into two groups, and rats of one group were orally administered once a day with 200 mg/kg of (R)-carbamic acid 3-[4-(3,4-dimethoxy-phenyl)-piperazine-1-yl]-3-oxo-1-phenyl-propyl ester for four weeks. The other group was orally administered with 30% polyethylene glycol (PEG) instead of the compound.
After the 4-week administration of the compound and PEG, amounts of total cholesterol and triglycerides in serum of each of the groups were measured and results thereof are shown in FIGS. 1 and 2. In order to measure the amounts of total cholesterol and triglycerides, serum was isolated from the rats and a Hitachi 7600 auto-analyzer was used.

In another assay the test system is fibronectin. Nature of the assay: Pharmaceutical effect test on diabetic nephropathy: fibronectin expression in renal cortex by real-time RT-PCR. The class given is in vivo, rat. The note with it: streptozotocin-diabetic rats; 200 mg/kg orally once a day for 4 weeks; untreated diabetic 1.4±0.1 times control. The method, then: Sprague-Dawley rats (n=21, 4 weeks, male) were used as lab models (Central Lab. Animal Inc.). Rats (n=14) having diabetes induced by intraperitoneal administration of 50 mg/kg of streptozotocin were used as a test group, and rats (n=7) intraperitoneally administered with only a solvent (100 mM citric acid buffer solution, pH 4.5) were used as a control. Typically, in rats having diabetes induced by streptozotocin, diabetic nephropathy is induced by hyperglycemia, and one of the symptoms is renal fibrosis, and gene expression of an extracellular matrix protein such as fibronectin is increased. 2 days after the administration of streptozotocin, diabetes was induced in the test group. […]
After the 4-week administration of the compound and PEG, renal cortex tissues were extracted from each of the groups and then, an expression level of fibronectin was measured by a real-time reverse transcription polymerase chain reaction (that is, an amount of mRNA transcribed from fibronectin) (see FIG. 3). The expression level of fibronectin was measured by using a forward primer (5′-[…]-3′; SEQ ID NO: 1) and a reverse primer (5′-[…]-3′; SEQ ID NO: 2). […] For the control, mRNA transcribed from a beta actin gene was used, and measurement results were indicated by dividing an amount of mRNA of fibronectin quantified from the RT-PCT results by an amount of mRNA of beta actin. […]
(In general: Quantitative PCR measures a nucleic acid by following its amplification.)

In a further assay the test system is PAI-1. Nature of the assay: Pharmaceutical effect test on inflammatory reaction in diabetic nephropathy model: PAI-1 mRNA in renal cortex. The class given is in vivo, rat. The note with it: streptozotocin-diabetic rats; 200 mg/kg orally once a day for 4 weeks; untreated diabetic 1.8±0.1 times control.
The test system of a further assay is MCP-1. Briefly: Pharmaceutical effect test on inflammatory reaction in diabetic nephropathy model: MCP-1 mRNA in renal cortex. It is filed as in vivo, rat. The note with it: streptozotocin-diabetic rats; 200 mg/kg orally once a day for 4 weeks; untreated diabetic 3.4±1.0 times control.
The subject of a further assay is TGF-β1. Nature of the assay: Pharmaceutical effect test on inflammatory reaction in diabetic nephropathy model: TGF-β1 mRNA in renal cortex. The settings on record: streptozotocin-diabetic rats; 200 mg/kg orally once a day for 4 weeks; untreated diabetic 1.6±0.2 times control. The class given is in vivo, rat.

In the case of `COc1ccc(N2CCN(C(=O)CC(OC(N)=O)c3ccccc3)CC2)cc1OC` (centres unmarked) [Example 1, carbamic acid 3-[4-(3,4-dimethoxy-phenyl)-piperazine-1-yl]-3-oxo-1-phenyl-propyl ester], the values for the inhibition at 10 µM in assay [1] and in assay [2] were 73% and 10%, respectively.
The matching figures for `COc1ccc(N2CCN(C(=O)CC(OC(N)=O)c3ccc(F)cc3)CC2)cc1OC` (centres unmarked) [Example 2, carbamic acid 3-[4-(3,4-dimethoxy-phenyl)-piperazine-1-yl]-1-(4-fluoro-phenyl)-3-oxo-propyl ester]: 69% and -5%.
On the same counts, the results for `NC(=O)OC(CC(=O)N1CCN(c2ccc3c(c2)OCO3)CC1)c1ccccc1` (centres unmarked) [Example 3, carbamic acid 3-(4-benzo[1,3]dioxol-5-yl-piperazine-1-yl)-3-oxo-1-phenyl-propyl ester] are 85% and -8%.
On the same counts, the results for `COc1ccc(N2CCN(C(=O)CC(OC(N)=O)c3ccc(C(F)(F)F)cc3)CC2)cc1OC` (centres unmarked) [Example 4, carbamic acid 3-[4-(3,4-dimethoxy-phenyl)-piperazine-1-yl]-1-(4-trifluoromethyl-phenyl)-3-oxo-propyl ester; hydrochloride] are 48% and 0%.
For `COc1ccc(N2CCN(C(=O)CC(OC(N)=O)c3ccc([N+](=O)[O-])cc3)CC2)cc1OC` (centres unmarked) [Example 5, carbamic acid 3-[4-(3,4-dimethoxy-phenyl)-piperazine-1-yl]-1-(4-nitro-phenyl)-3-oxo-propyl ester], the inhibition at 10 µM was found to be 75% in assay [1] and 0% in assay [2].
On the same counts, the results for `NC(=O)O[C@H](CC(=O)N1CCN(c2ccc(Cl)cc2)CC1)c1ccccc1` [Example 6, (R)-carbamic acid 3-[4-(4-chloro-phenyl)-piperazine-1-yl]-3-oxo-1-phenyl-propyl ester] are 114% and 11%.
In the case of `COc1ccc(N2CCN(C(=O)C[C@H](OC(N)=O)c3ccccc3)CC2)cc1OC` [Example 7, (S)-carbamic acid 3-[4-(3,4-dimethoxy-phenyl)-piperazine-1-yl]-3-oxo-1-phenyl-propyl ester], the inhibition at 10 µM came out at 69% in assay [1] and 2% in assay [2].
Turning to `COc1ccc(N2CCN(C(=O)C[C@@H](OC(N)=O)c3ccccc3)CC2)cc1OC` [Example 8, (R)-carbamic acid 3-[4-(3,4-dimethoxy-phenyl)-piperazine-1-yl]-3-oxo-1-phenyl-propyl ester], the inhibition at 10 µM came out at 79% in assay [1] and 15% in assay [2]. Moreover, the “concentration of total cholesterol in serum” value in assay [3] (untreated diabetic 120±13, control 62±5 mg/dl) is 66 ± 9 mg/dL. Moreover, in assay [3] (untreated diabetic 760±162 mg/dl), the “concentration of triglyceride in serum” value worked out at 126 ± 44 mg/dL. Also, the “expression level of fibronectin of the renal cortex (mRNA / beta actin mRNA) relative to control” value with fibronectin is recorded as 1.2±0.1 times. Moreover, the “expression level of PAI-1 gene in the renal cortex relative to control” value with PAI-1 came out at 1.1±0.2 times. Moreover, in the assay with MCP-1, the “expression level of MCP-1 gene in the renal cortex relative to control” value worked out at 1.6±0.3 times. Besides, the “expression level of TGF-β1 gene in the renal cortex relative to control” value in the assay on TGF-β1 stood at 1.3±0.2 times.
`COc1ccc(N2CCN(C(C)CC(OC(N)=O)c3ccccc3)CC2)cc1OC` (centres unmarked) [Example 9, carbamic acid 3-[4-(3,4-dimethoxy-phenyl)-piperazine-1-yl]-1-phenyl-butyl ester]: the inhibition at 10 µM in assay [1] is 62%; in assay [2] it was 0%.
The matching figures for `COc1ccc(N2CCN(C(=O)CC(OC(N)=O)c3ccc(Cl)cc3)CC2)cc1OC` (centres unmarked) [Example 10, carbamic acid 3-[4-(3,4-dimethoxy-phenyl)-piperazine-1-yl]-1-(4-chloro-phenyl)-3-oxo-propyl ester]: 72% and 7%.
